Patent US20240209028A1, “CNP COMPOUNDS” (priority 2022, published 2024)
Starred links: 1 amine or outer side, 2 acyl side, 3 side chain; linkers in the order of their positions; H or OH if unused. Positions of bridges follow the written chain, without caps; N, C: chain ends. Residues, ends and D or L forms follow the SMILES beside them. *: point of attachment. C18 diacid = O=C(O)CCCCCCCCCCCCCCCCC(=O)*; γGlu = O=C(O)[C@H](CCC(=O)[*:2])N[*:1]; AEEA = NCCOCCOCC(=O)O

target: T1, human natriuretic peptide receptor 2 (hNPR2) (Homo sapiens, UniProt P20594); assay: In vitro hNPR2 activity assay (cGMP GloSensor reporter, HEK293); assay type: cell-based; settings: 0% HSA; HEK293-hNPR2/GloSensor cells
T1 construct: expressed in transfected cells; host or cells: HEK293 (ATCC CRL-1573), clone 35, co-transfected with pGloSensor-42F
T1 sequence (P20594 23-1047): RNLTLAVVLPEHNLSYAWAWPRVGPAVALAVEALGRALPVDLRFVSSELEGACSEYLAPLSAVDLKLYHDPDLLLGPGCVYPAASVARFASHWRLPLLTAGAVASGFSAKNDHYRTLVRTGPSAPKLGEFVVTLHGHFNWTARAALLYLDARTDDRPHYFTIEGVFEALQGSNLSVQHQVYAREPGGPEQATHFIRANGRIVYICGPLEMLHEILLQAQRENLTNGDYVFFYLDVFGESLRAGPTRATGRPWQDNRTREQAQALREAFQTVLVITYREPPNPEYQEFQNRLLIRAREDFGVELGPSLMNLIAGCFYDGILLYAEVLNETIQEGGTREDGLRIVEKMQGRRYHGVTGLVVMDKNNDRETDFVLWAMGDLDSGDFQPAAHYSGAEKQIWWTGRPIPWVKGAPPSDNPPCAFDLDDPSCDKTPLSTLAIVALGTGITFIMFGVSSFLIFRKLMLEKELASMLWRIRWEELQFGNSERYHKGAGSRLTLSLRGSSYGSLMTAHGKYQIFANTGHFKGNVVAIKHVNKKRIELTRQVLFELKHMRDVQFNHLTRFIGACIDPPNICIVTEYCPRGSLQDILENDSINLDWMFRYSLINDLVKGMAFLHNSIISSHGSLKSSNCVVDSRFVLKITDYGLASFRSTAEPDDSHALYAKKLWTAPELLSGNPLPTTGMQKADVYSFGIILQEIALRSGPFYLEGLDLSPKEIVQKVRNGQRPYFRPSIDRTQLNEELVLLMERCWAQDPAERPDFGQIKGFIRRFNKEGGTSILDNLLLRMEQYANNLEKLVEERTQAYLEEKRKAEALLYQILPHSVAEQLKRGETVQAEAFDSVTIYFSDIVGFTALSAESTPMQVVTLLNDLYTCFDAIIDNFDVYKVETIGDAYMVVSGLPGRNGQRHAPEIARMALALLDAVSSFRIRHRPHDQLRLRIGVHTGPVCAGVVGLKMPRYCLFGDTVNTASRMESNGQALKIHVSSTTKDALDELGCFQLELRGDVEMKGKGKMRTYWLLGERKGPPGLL
Procedure, shortened: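 Potency is the EC50 from a four-parameter logistic fit, also expressed relative to the in-plate CNP22 control (×100), with at least two replicates. Compounds (ten concentrations, […], HSA-free diluent with 1% OVA, 0.01% Tween20) were incubated 30 min at 37 °C on HEK293 cells co-expressing hNPR2 and a GloSensor cGMP luciferase. Luminescence detected with Bright-Glo.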

Row | SMILES | EC50 [nM]
1 | CC[C@H](C)[C@@H]1NC(=O)[C@H](CCCNC(=N)N)NC(=O)[C@H](CCC(=O)O)NC(=O)[C@H](CC(C)C)NC(=O)[C@@H]2CCCN2C(=O)[C@H](CC(C)C)NC(=O)CNC(=O)[C@H](Cc2ccccc2)NC(=O)[C@@H](NC(=O)CNC(=O)[C@H](CCC(N)=O)NC(=O)[C@H](CO)NC(=O)[C@H](CC(C)C)NC(=O)CNC(=O)[C@H](CCCCN)NC(=O)[C@H](CCCCN)NC(=O)[C@H](CCC(N)=O)NC(=O)[C@H](C)NC(=O)CNC(=O)[C@H](CCCCN)NC(=O)[C@H](Cc2ccc(O)cc2)NC(=O)[C@H](CCCCN)NC(=O)[C@H](CCCNC(=N)N)NC(=O)[C@H](C)NC(=O)COCCOCCNC(=O)COCCOCCNC(=O)COCCOCCNC(=O)COCCOCCNC(=O)CC[C@H](NC(=O)CC[C@H](NC(=O)CC[C@H](NC(=O)CC[C@H](NC(=O)CC[C@H](NC(=O)CCCCCCCCCCCCCCCCC(=O)O)C(=O)O)C(=O)O)C(=O)O)C(=O)O)C(=O)O)CSSC[C@@H](C(=O)O)NC(=O)CNC(=O)[C@H](CC(C)C)NC(=O)CNC(=O)[C@H](CO)NC(=O)[C@H](CC(C)C)NC(=O)[C@H](CO)NC(=O)CNC1=O [compound 1477] ({C18 diacid-γGlu-γGlu-γGlu-γGlu-γGlu-AEEA-AEEA-AEEA-AEEA}-ARKYKGAQKKGLSQGCFGLPLERIGSLSGLGC-OH; disulfide 16-32) | 0.13

same assay, conditions: potency relative to CNP22 (0065)

Row | SMILES | hNPR2 0% HSA. [EC50% rel CNP] [%]
2 | CC[C@H](C)[C@@H]1NC(=O)[C@H](CCCNC(=N)N)NC(=O)[C@H](CC(=O)O)NC(=O)[C@H](CC(C)C)NC(=O)[C@@H]2CCCN2C(=O)[C@H](CC(C)C)NC(=O)CNC(=O)[C@H](Cc2ccccc2)NC(=O)[C@@H](NC(=O)CNC(=O)[C@H](CCC(N)=O)NC(=O)[C@H](CO)NC(=O)[C@H](CC(C)C)NC(=O)CNC(=O)[C@H](CCCCN)NC(=O)[C@H](CCCCN)NC(=O)[C@H](CCC(N)=O)NC(=O)[C@H](C)NC(=O)CNC(=O)[C@H](CCCCN)NC(=O)[C@H](Cc2ccc(O)cc2)NC(=O)[C@H](CCCCN)NC(=O)[C@H](CCCNC(=N)N)NC(=O)[C@H](C)NC(=O)[C@H](CCC(N)=O)NC(=O)[C@@H]2CCCN2C(=O)[C@H](Cc2c[nH]cn2)NC(=O)[C@H](CCC(=O)O)NC(=O)[C@H](CCC(N)=O)NC(=O)COCCOCCNC(=O)COCCOCCNC(=O)COCCOCCNC(=O)COCCOCCNC(=O)CC[C@H](NC(=O)CC[C@H](NC(=O)CC[C@H](NC(=O)CC[C@H](NC(=O)CC[C@H](NC(=O)CCCCCCCCCCCCCCCCC(=O)O)C(=O)O)C(=O)O)C(=O)O)C(=O)O)C(=O)O)CSSC[C@@H](C(=O)O)NC(=O)CNC(=O)[C@H](CC(C)C)NC(=O)CNC(=O)[C@H](CO)NC(=O)[C@H](CC(C)C)NC(=O)[C@H](CO)NC(=O)CNC1=O [compound 1406] ({C18 diacid-γGlu-γGlu-γGlu-γGlu-γGlu-AEEA-AEEA-AEEA-AEEA}-QEHPQARKYKGAQKKGLSQGCFGLPLDRIGSLSGLGC-OH; disulfide 21-37) | 59.1
3 | CC[C@H](C)[C@@H]1NC(=O)[C@H](CCCNC(=N)N)NC(=O)[C@H](CCC(=O)O)NC(=O)[C@H](CC(C)C)NC(=O)[C@@H]2CCCN2C(=O)[C@H](CC(C)C)NC(=O)CNC(=O)[C@H](Cc2ccccc2)NC(=O)[C@@H](NC(=O)CNC(=O)[C@H](CCC(N)=O)NC(=O)[C@H](CO)NC(=O)[C@H](CC(C)C)NC(=O)CNC(=O)[C@H](CCCCN)NC(=O)[C@H](CCCCN)NC(=O)[C@H](CCC(N)=O)NC(=O)[C@H](C)NC(=O)CNC(=O)[C@H](CCCCN)NC(=O)[C@H](Cc2ccc(O)cc2)NC(=O)[C@H](CCCCN)NC(=O)[C@H](CCCNC(=N)N)NC(=O)[C@H](C)NC(=O)COCCOCCNC(=O)COCCOCCNC(=O)COCCOCCNC(=O)COCCOCCNC(=O)CC[C@H](NC(=O)CC[C@H](NC(=O)CC[C@H](NC(=O)CC[C@H](NC(=O)CC[C@H](NC(=O)CCCCCCCCCCCCCCCCC(=O)O)C(=O)O)C(=O)O)C(=O)O)C(=O)O)C(=O)O)CSSC[C@@H](C(=O)O)NC(=O)CNC(=O)[C@H](CC(C)C)NC(=O)CNC(=O)[C@H](CO)NC(=O)[C@H](CC(C)C)NC(=O)[C@H](CO)NC(=O)CNC1=O [compound 1477] ({C18 diacid-γGlu-γGlu-γGlu-γGlu-γGlu-AEEA-AEEA-AEEA-AEEA}-ARKYKGAQKKGLSQGCFGLPLERIGSLSGLGC-OH; disulfide 16-32) | 10.3
4 | CC[C@H](C)[C@@H]1NC(=O)[C@H](CCCNC(=N)N)NC(=O)[C@H](CC(=O)O)NC(=O)[C@H](CC(C)C)NC(=O)[C@@H]2CCCN2C(=O)[C@H](CC(C)C)NC(=O)CNC(=O)[C@H](Cc2ccccc2)NC(=O)[C@@H](NC(=O)CNC(=O)[C@H](CCC(N)=O)NC(=O)[C@H](CO)NC(=O)[C@H](CC(C)C)NC(=O)CNC(=O)[C@H](CCCCN)NC(=O)[C@H](CCCCN)NC(=O)[C@H](CCC(N)=O)NC(=O)[C@H](C)NC(=O)CNC(=O)[C@H](CCCCN)NC(=O)[C@H](Cc2ccc(O)cc2)NC(=O)[C@H](CCCCN)NC(=O)[C@H](Cc2c[nH]cn2)NC(=O)[C@H](C)NC(=O)[C@H](CCC(N)=O)NC(=O)[C@@H]2CCCN2C(=O)[C@H](Cc2c[nH]cn2)NC(=O)[C@H](CCC(=O)O)NC(=O)[C@H](CCC(N)=O)NC(=O)COCCOCCNC(=O)COCCOCCNC(=O)CC[C@H](NC(=O)CC[C@H](NC(=O)CC[C@H](NC(=O)CCCCCCCCCCCCCCCCC(=O)O)C(=O)O)C(=O)O)C(=O)O)CSSC[C@@H](C(=O)O)NC(=O)CNC(=O)[C@H](CC(C)C)NC(=O)CNC(=O)[C@H](CO)NC(=O)[C@H](CC(C)C)NC(=O)[C@H](CO)NC(=O)CNC1=O [compound 1382] ({C18 diacid-γGlu-γGlu-γGlu-AEEA-AEEA}-QEHPQAHKYKGAQKKGLSQGCFGLPLDRIGSLSGLGC-OH; disulfide 21-37) | 43.8
5 | CC[C@H](C)[C@@H]1NC(=O)[C@H](CCCNC(=N)N)NC(=O)[C@H](CC(=O)O)NC(=O)[C@H](CC(C)C)NC(=O)[C@@H]2CCCN2C(=O)[C@H](CC(C)C)NC(=O)CNC(=O)[C@H](Cc2ccccc2)NC(=O)[C@@H](NC(=O)CNC(=O)[C@H](CCC(N)=O)NC(=O)[C@H](CO)NC(=O)CNC(=O)CNC(=O)[C@H](CCCCN)NC(=O)[C@H](CCCCN)NC(=O)[C@H](CCC(N)=O)NC(=O)[C@H](C)NC(=O)CNC(=O)[C@H](CCCCN)NC(=O)[C@H](Cc2ccc(O)cc2)NC(=O)COCCOCCNC(=O)COCCOCCNC(=O)COCCOCCNC(=O)COCCOCCNC(=O)CC[C@H](NC(=O)CC[C@H](NC(=O)CCCCCCCCCCCCCCCCC(=O)O)C(=O)O)C(=O)O)CSSC[C@@H](C(=O)O)NC(=O)CNC(=O)[C@H](CC(C)C)NC(=O)CNC(=O)[C@H](CO)NC(=O)[C@H](CC(C)C)NC(=O)[C@H](CO)NC(=O)CNC1=O [compound 9435] ({C18 diacid-γGlu-γGlu-AEEA-AEEA-AEEA-AEEA}-YKGAQKKGGSQGCFGLPLDRIGSLSGLGC-OH; disulfide 13-29; C-terminus assumed) | 73.6
6 | CC[C@H](C)[C@@H]1NC(=O)[C@H](CCCNC(=N)N)NC(=O)[C@H](CC(=O)O)NC(=O)[C@H](CC(C)C)NC(=O)[C@@H]2CCCN2C(=O)[C@H](CC(C)C)NC(=O)CNC(=O)[C@H](Cc2ccccc2)NC(=O)[C@@H](NC(=O)CNC(=O)[C@H](CO)NC(=O)[C@H](CO)NC(=O)[C@@H](NC(=O)CNC(=O)[C@@H](NC(=O)[C@H](Cc2c[nH]cn2)NC(=O)[C@H](CCC(N)=O)NC(=O)[C@H](C)NC(=O)CNC(=O)[C@H](Cc2c[nH]cn2)NC(=O)[C@H](Cc2ccc(O)cc2)NC(=O)[C@H](CCCCN)NC(=O)[C@H](CCCNC(=N)N)NC(=O)[C@H](C)NC(=O)COCCOCCNC(=O)COCCOCCNC(=O)CC[C@H](NC(=O)CCCCCCCCCCCCCCCCC(=O)O)C(=O)O)[C@@H](C)O)C(C)C)CSSC[C@@H](C(=O)O)NC(=O)CNC(=O)[C@H](CC(C)C)NC(=O)CNC(=O)[C@H](CO)NC(=O)[C@H](CC(C)C)NC(=O)[C@H](CO)NC(=O)CNC1=O [compound 1351] ({C18 diacid-γGlu-AEEA-AEEA}-ARKYHGAQHTGVSSGCFGLPLDRIGSLSGLGC-OH; disulfide 16-32) | 55.2
7 | CC[C@H](C)[C@@H]1NC(=O)[C@H](CCCNC(=N)N)NC(=O)[C@H](CC(=O)O)NC(=O)[C@H](CC(C)C)NC(=O)[C@@H]2CCCN2C(=O)[C@H](CC(C)C)NC(=O)CNC(=O)[C@H](Cc2ccccc2)NC(=O)[C@@H](NC(=O)CNC(=O)[C@H](CO)NC(=O)[C@H](CO)NC(=O)[C@H](CC(C)C)NC(=O)CNC(=O)[C@H](CCCCN)NC(=O)[C@H](CCCCN)NC(=O)[C@H](CCC(N)=O)NC(=O)[C@H](C)NC(=O)CNC(=O)[C@H](CCC(=O)O)NC(=O)[C@H](Cc2ccc(O)cc2)NC(=O)COCCOCCNC(=O)COCCOCCNC(=O)COCCOCCNC(=O)COCCOCCNC(=O)CC[C@H](NC(=O)CCCCCCCCCCCCCCCCC(=O)O)C(=O)O)CSSC[C@@H](C(=O)O)NC(=O)CNC(=O)[C@H](CC(C)C)NC(=O)CNC(=O)[C@H](CO)NC(=O)[C@H](CC(C)C)NC(=O)[C@H](CO)NC(=O)CNC1=O [compound 1392] ({C18 diacid-γGlu-AEEA-AEEA-AEEA-AEEA}-YEGAQKKGLSSGCFGLPLDRIGSLSGLGC-OH; disulfide 13-29) | 29.5
